From patent EP2077104A1, “Micellar compositions with ophtalmic applications” (Novagali Pharma S.A., priority 2008, dated 2009)

Test: Zeta potential of emulsion surface
Format: physicochemical
Settings: 0.002% CKC in emulsion
From the text: Thus in preferred embodiments, micellar compositions of the present invention have a positive zeta potential. As known in the art, the zeta potential is a measure of the magnitude of repulsion or attraction between particles (Washington, Adv. Drug Deliv. Reviews, 1996, 20:131-145). The Zeta potential is not measurable directly but it can be calculated using theoretical models and an experimentally-determined electrophoretic mobility or dynamic electrophoretic mobility. As known in the art, electrophoretic mobility can be determined using micro-electrophoresis or electrophoretic light scattering.
All the eye drops were supplied by Novagali Pharma (Evry, France) and were sterile with physiological pH and osmolality. The present Applicants chose to compare 0.02% BAK to 0.002% CKC since these two QAC concentrations confer equivalent positive charge to the emulsion surface (zeta potential around 20 mV).

CCCCCCCCCCCCCCCC[N+](C)(C)Cc1ccccc1 [Cetalkonium chloride, cetalkonium chloride]
zeta potential: around 20 mV
